Data: paper PMC2902275 (Cancer prevention research (Philadelphia, Pa.), 2009)

Molecular target: HDAC3 (Homo sapiens, UniProt O15379)
Experiment: preliminary enzyme kinetics of HDAC3 inhibition
Format: biochemical

Sequence of HDAC3 (O15379 whole entry): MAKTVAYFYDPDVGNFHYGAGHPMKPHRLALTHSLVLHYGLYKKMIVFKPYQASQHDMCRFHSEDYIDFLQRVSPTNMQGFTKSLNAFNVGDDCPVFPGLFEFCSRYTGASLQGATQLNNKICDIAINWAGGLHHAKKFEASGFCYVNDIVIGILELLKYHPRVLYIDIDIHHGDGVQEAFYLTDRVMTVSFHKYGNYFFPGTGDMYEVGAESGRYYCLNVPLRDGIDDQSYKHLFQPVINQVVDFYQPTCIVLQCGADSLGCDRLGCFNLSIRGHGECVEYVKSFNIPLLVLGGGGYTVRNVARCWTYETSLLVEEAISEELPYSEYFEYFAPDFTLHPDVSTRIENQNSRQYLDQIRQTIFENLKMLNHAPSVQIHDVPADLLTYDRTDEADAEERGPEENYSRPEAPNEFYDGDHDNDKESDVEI

`C[Se]CCC(=O)C(=O)O` [KMSB, α-keto-γ-methylselenobutyrate] was tested, and the Ki was about 30 µM.
